{"source": "patent US6384077B1", "about": "“Highly purified EPA for treatment of schizophrenia and related disorders” (Laxdale Limited, priority 1999, dated 2002)", "key": {"[1]": {"test_system": "schizophrenia", "test": "case history: schizophrenia, E-EPA added to clozapine", "format": "in vivo, human", "details": "2 g/day in addition to clozapine 900 mg/day", "excerpt": "This mechanism is thought to be responsible for their rapid effects on the so-called “positive” symptoms of schizophrenia (such as hallucinations, delusions and thought disorder). […] The D2 blocking action is also responsible for many of the adverse effects of these drugs, which include extrapyramidal movement disorders, excess prolactin secretion, and tardive dyskinesias. Examples of widely used drugs in this class include chlorpromazine, thioridazine, haloperidol, pimozide, flupenthixol and sulpiride.\nThese may include blockade of one or more of the other dopamine receptors such as D1, D3 or D4, and also usually including blockade of one or more classes of serotonin receptors. […] They may also have actions at other receptors, including histamine, glutamate and acetyl choline receptors.\nThe patient was treated with clozapine, eventually reaching a maximum dose of 900 mg/day.\nE-EPA in a dose of 2 g/day was then administered in addition to clozapine."}, "[2]": {"test_system": "schizophrenia, drug-induced obesity", "format": "in vivo, human", "details": "ethyl-EPA in addition to olanzapine, six months", "excerpt": "Obesity is another common side effect of antipsychotropic drugs. In this respect some of the newer drugs like olanzapine frequently seem to be even worse offenders than the typical neuroleptics. […] They preferred the olanzapine but it still left their withdrawn and unable to communicate normally with friends or family. To their distress it caused them to put on over 10 kg in weight. Their doctor decided to test ethyl-EPA in addition to olanzapine."}, "[3]": {"test_system": "severe depression", "test": "case history: severe depression, ethyl-EPA added to citalopram", "format": "in vivo, human", "details": "1 g/day in addition to citalopram, after four weeks", "excerpt": "(§1) In addition to citalopram they were then given 1 g/day of ethyl-EPA. […] Another case was a young person who dropped out of college with a schizophrenic breakdown."}, "[4]": {"test_system": "Huntington's disease", "test": "randomised double blind trial of 96% pure ethyl-EPA in Huntington's disease", "format": "in vivo, human", "details": "2 g/day, 6 months", "method": "Because early Huntington's disease may present with schizophrenia-like features, a randomised trial of 96% pure ethyl-EPA was set up in seven severely disabled patients in the final stages of Huntington's disease. All required 24 hour nursing care, had severe movement disorders, were irritable and were partially demented. They were randomised on a double blind basis to receive 2 g/day ethyl-EPA or 2 g/day placebo for 6 months. […] In four of the patients, two on ethyl-EPA and two on placebo, the brain degeneration was assessed at the beginning and end of the study by magnetic resonance imaging (MRI). MRI allows an accurate assessment of the size of the lateral ventricles, the fluid-filled spaces within the cerebral hemispheres. As Huntington's disease progresses, the lateral ventricles enlarge indicating loss of brain tissue. In the two patients on placebo over 6 months the ventricles enlarged as expected."}, "[5]": {"test_system": "panic and anxiety disorders", "test": "case histories: panic and anxiety disorders", "format": "in vivo, human", "method": "We have now treated several patients who have panic and anxiety disorders with purified ethyl-EPA with excellent effect. Three case histories follow. A person was disabled as a result of frequent and uncontrollable panic attacks and palpitations. […] They were then given a dose of 2 g per day of ethyl EPA as four 500 mg capsules. […] A person had suffered from mild anxiety and panic attacks for most of their life but these had become much worse over the previous few years in association with various problems with their children. Anxiolytics and antidepressants had only modest effects and their palpitations were uncontrolled even by relatively high doses of beta-blockers. Again they were treated with ethyl-EPA over a period of four months. […] The third patient was a housewife who had been through two divorces and was now in a long-term relationship. They had several panic attacks every week, sometimes in the middle of the night, and always accompanied by strong palpitations which were very worrying for them. These panic attacks were accompanied by depression. They were very reluctant to go out for fear of having an attack and this seriously disrupted their life. Again, antidepressants, beta-blockers and anxiolytics had had only limited beneficial effects. […] Sometimes, they felt that an attack of palpitations might be coming on but it rarely materialised. As a result, they felt increasing confidence and was able to resume a much more normal life."}, "[6]": {"test_system": "clozapine-induced hypersalivation", "test": "three clozapine-treated patients with hypersalivation", "format": "in vivo, human", "excerpt": "Clozapine is regarded as a particularly effective drug by many psychiatrists but it has a range of severe side effects. From the patient's point of view one of the most troublesome is hypersalivation. This may not sound very serious but the constant flow of large volumes of saliva is in fact very distressing for the patient and for those who are associated with the patient. The mechanism of the hypersalivation is unknown."}, "[7]": {"test_system": "schizophrenic breakdown", "details": "2 g/day with olanzapine, after about 4 weeks", "excerpt": "as §1"}, "[8]": {"test_system": "bipolar disorder", "test": "case reports: five patients with bipolar disorder", "format": "in vivo, human", "details": "2 g/day after switch from fish oil", "excerpt": "This provided 1.8-3.6 g of EPA and 1.2-2.4 g of DHA per day. […] They were, however, far from completely normal. When the pure ethyl-EPA became available, they were switched from the fish oil to the pure EPA at a dose of 2 g/day in the form of four 0.5 g soft gelatin capsules. […] In particular they all noted an improvement in something which is difficult to measure by conventional psychiatric rating scales. This is a sense of inner tension or dysphoria, a state which is associated with the illness, but which may be exaggerated or changed by antipsychotic drugs to a state of confused tension, sometimes described as a sense of the brain being replaced by cotton wool, and a difficulty of thinking clearly in a straight line. […] They had not noticed this effect which being treated with the higher dose of EPA in the form of the EPA/DHA mix in fish oil."}, "[9]": {"test_system": "attention deficit hyperactivity disorder (ADHD)", "test": "case report: child with ADHD", "format": "in vivo, human", "details": "two capsules per day, after two weeks", "excerpt": "Attention deficit hyperactivity disorder (ADHD): ADHD and closely related conditions like attention deficit disorder and conduct disorders are commonly found in children. Occasionally they may be successfully treated by behaviour modification and other psychological techniques or by careful attention to diet. However, in most cases, paradoxical treatment with one of the stimulant drugs related in their action to amphetamine is required. Methylphenidate and dextroamphetamine are the commonest used. A child with serious ADHD since infancy was driving their parents to distraction. […] The parents were concerned about the long term consequences of stimulant drugs. The child was therefore tried on two capsules of pure ethyl-EPA per day. […] The child became less tense and irritable, less hyperactive, more open to reasoned discussion and enormously less disruptive both at home and school. Even when their methylphenidate was stopped, their behaviour remained improved."}, "[10]": {"test_system": "schizophrenia", "test": "case report: schizophrenia, fish oil switched to ethyl-EPA", "format": "in vivo, human", "excerpt": "This provided around 1.9 g/day of EPA and 0.6 g/day of DHA. They were not taking other antipsychotic drugs. […] However, when they did this the symptoms returned and it was concluded that they had to take around 2 g/day of EPA to remain well. When the purified ethyl-EPA became available, they were switched to 4×0.5 g capsules, also providing around 2 g/day. […] They therefore dropped the dose to 1 g/day."}}, "data": [{"smiles": "CC/C=C\\C/C=C\\C/C=C\\C/C=C\\C/C=C\\CCCC(=O)OCC", "note": "[ethyl-EPA]", "values": [{"measurement": "clozapine-induced hypersalivation", "setting": "[1]", "value": "considerably reduced"}, {"measurement": "effect on schizophrenic illness", "setting": "[1]", "value": "dramatic within two weeks"}, {"measurement": "withdrawn state", "setting": "[2]", "value": "gradually improved"}, {"measurement": "effect on mood", "setting": "[3]", "value": "lightening of mood"}, {"measurement": "clinical course of Huntington's disease", "setting": "[4]; three patients", "value": "improved"}, {"measurement": "lateral ventricle size by MRI", "setting": "[4]; two patients", "value": "reduction in lateral ventricle size"}, {"measurement": "panic attacks and palpitations", "setting": "[5]; housewife, four months", "value": "dramatic reduction in their panic attacks and palpitations"}, {"measurement": "panic attacks and palpitations", "setting": "[5]; person, 2 g per day, three months", "value": "almost absent"}, {"measurement": "anxiety and panic attacks", "setting": "[5]; person, four months", "value": "much less severe"}, {"measurement": "psychiatric state", "setting": "[6]", "value": "substantial improvement in psychiatric state"}, {"measurement": "salivation", "setting": "[6]", "value": "dramatically reduced the salivation to normal levels"}, {"measurement": "clarity of thinking", "setting": "[7]", "value": "thinking more clearly"}, {"measurement": "clinical condition in bipolar disorder", "setting": "[8]", "value": "clinical condition improved considerably"}, {"measurement": "sense of dysphoria, tension and cotton-wool thinking", "setting": "[8]", "value": "greatly reduced or disappeared altogether"}, {"measurement": "behaviour in ADHD", "setting": "[9]", "value": "substantial improvement in behaviour"}, {"measurement": "recurrence of symptoms after dose reduction", "setting": "[10]; 1 g/day", "value": "did not lead to a recurrence of symptoms"}, {"measurement": "control of schizophrenia symptoms", "setting": "[10]; 4x0.5 g capsules, around 2 g/day", "value": "controlled their symptoms very well"}]}]}
